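96-well plates; 48 h exposure; 5 concentrations. Endpoints by linear interpolation between flanking doses. Not reached: highest tested concentration assigned. TGI denotes the concentration required for complete inhibition of growth.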
Key:
Experiment in all cases: NCI tumour cell line growth inhibition, 48 h
786-0 renal = test system: 786-0 renal
A498 renal = test system: A498 renal
A549 NSCLC = test system: A549 NSCLC
ACHN renal = test system: ACHN renal
CAKI-1 renal = test system: CAKI-1 renal
CCRF-CEM leukemia = test system: CCRF-CEM leukemia
COLO 205 colon = test system: COLO 205 colon
DLD-1 colon = test system: DLD-1 colon
DMS 114 small cell lung = test system: DMS 114 small cell lung
EKVX NSCLC = test system: EKVX NSCLC
HCC-2998 colon = test system: HCC-2998 colon
HCT-116 colon = test system: HCT-116 colon
HL-60(TB) leukemia = test system: HL-60(TB) leukemia
HOP-18 NSCLC = test system: HOP-18 NSCLC
HOP-62 NSCLC = test system: HOP-62 NSCLC
HOP-92 NSCLC = test system: HOP-92 NSCLC
HT29 colon = test system: HT29 colon
IGROV1 ovarian = test system: IGROV1 ovarian
K-562 leukemia = test system: K-562 leukemia
KM12 colon = test system: KM12 colon
KM20L2 colon = test system: KM20L2 colon
LOX IMVI melanoma = test system: LOX IMVI melanoma
LXFL 529 NSCLC = test system: LXFL 529 NSCLC
M14 melanoma = test system: M14 melanoma
M19-MEL melanoma = test system: M19-MEL melanoma
MALME-3M melanoma = test system: MALME-3M melanoma
MOLT-4 leukemia = test system: MOLT-4 leukemia
NCI-H226 lung = test system: NCI-H226 lung
NCI-H23 lung = test system: NCI-H23 lung
NCI-H460 lung = test system: NCI-H460 lung
NCI-H522 lung = test system: NCI-H522 lung
OVCAR-3 ovarian = test system: OVCAR-3 ovarian
OVCAR-4 ovarian = test system: OVCAR-4 ovarian
OVCAR-8 ovarian = test system: OVCAR-8 ovarian
RXF 393 renal = test system: RXF 393 renal
SF-268 CNS = test system: SF-268 CNS
SF-295 CNS = test system: SF-295 CNS
SF-539 CNS = test system: SF-539 CNS
SK-MEL-28 melanoma = test system: SK-MEL-28 melanoma
SK-MEL-5 melanoma = test system: SK-MEL-5 melanoma
SK-OV-3 ovarian = test system: SK-OV-3 ovarian
SN12C renal = test system: SN12C renal
SNB-19 CNS = test system: SNB-19 CNS
SNB-75 CNS = test system: SNB-75 CNS
SNB-78 CNS = test system: SNB-78 CNS
SR leukemia = test system: SR leukemia
SW-620 colon = test system: SW-620 colon
TK-10 renal = test system: TK-10 renal
U251 CNS = test system: U251 CNS
UACC-257 melanoma = test system: UACC-257 melanoma
UACC-62 melanoma = test system: UACC-62 melanoma
UO-31 renal = test system: UO-31 renal
XF 498 CNS = test system: XF 498 CNS

Measured: TGI

COc1nc2c(nc(N)n2C2OCC(O)C(O)C2O)c(=O)n1C (stereo not drawn)
> 100 µM: all assays above
